Results as given in PubChem BioAssay AID248 (DTP/NCI, 2004).
Toxic doses and inconclusive results are not listed. Rule as the data show it: active = T/C of 150% or more; inactive = T/C below 125%.

System: L1210 leukemia ip in BDF1 mice, survival T/C
Assay: NCI In Vivo Anticancer Drug Screen. Data for tumor model L1210 Leukemia (intraperitoneal) in B6D2F1 (BDF1) mice
Conditions: endpoint: mean survival time, higher = longer survival
In short: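 Transplanted-tumor mice were given test agent; controls received vehicle only. Survival readings from the two groups were divided (treated over control).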

[1] = dose: 100.0 mg/kg/injection, schedule: Q04DX003 (ip), vehicle: saline
[2] = dose: 200.0 mg/kg/injection, schedule: Q04DX003 (ip), vehicle: saline
[3] = dose: 400.0 mg/kg/injection, schedule: Q04DX003 (ip), vehicle: saline
[4] = dose: 100.0 mg/kg/injection, schedule: Q01DX001 (ip), vehicle: saline
[5] = dose: 200.0 mg/kg/injection, schedule: Q01DX001 (ip), vehicle: saline
[6] = dose: 400.0 mg/kg/injection, schedule: Q01DX001 (ip), vehicle: saline
[7] = dose: 100.0 mg/kg/injection, schedule: Q04DX003 (ip), vehicle: Klucel (hydroxypropylcellulose) (HPC)
[8] = dose: 200.0 mg/kg/injection, schedule: Q04DX003 (ip), vehicle: Klucel (hydroxypropylcellulose) (HPC)
[9] = dose: 400.0 mg/kg/injection, schedule: Q04DX003 (ip), vehicle: Klucel (hydroxypropylcellulose) (HPC)

Measured: T/C

CC1=CCC(C/C=N/N=C/CC2CC=C(C)C2(C)C)C1(C)C (stereo unspecified)
inactive: dose: 100.0 mg/kg/injection, schedule: Q01DX009 (sc), vehicle: olive oil, sesame oil, peanut oil 100 % of control | dose: 100.0 mg/kg/injection, schedule: Q04DX003 (sc), vehicle: olive oil, sesame oil, peanut oil 97 % of control | dose: 200.0 mg/kg/injection, schedule: Q01DX009 (sc), vehicle: olive oil, sesame oil, peanut oil 100 % of control | dose: 200.0 mg/kg/injection, schedule: Q04DX003 (sc), vehicle: olive oil, sesame oil, peanut oil 101 % of control | dose: 400.0 mg/kg/injection, schedule: Q01DX009 (sc), vehicle: olive oil, sesame oil, peanut oil 98 % of control | dose: 400.0 mg/kg/injection, schedule: Q04DX003 (sc), vehicle: olive oil, sesame oil, peanut oil 106 % of control

Cn1c2ccccc2c(=O)c2cc(N)ccc21
inactive: [1] 95 % of control | [2] 98 % of control | [3] 104 % of control

COc1ccc(C[n+]2cc([O-])on2)cc1
inactive: dose: 12.5 mg/kg/injection, schedule: Q01DX001 (ip), vehicle: Klucel (hydroxypropylcellulose) (HPC) 101 % of control | dose: 12.5 mg/kg/injection, schedule: Q04DX003 (ip), vehicle: Klucel (hydroxypropylcellulose) (HPC) 104 % of control | dose: 25.0 mg/kg/injection, schedule: Q01DX001 (ip), vehicle: Klucel (hydroxypropylcellulose) (HPC) 99 % of control | dose: 25.0 mg/kg/injection, schedule: Q04DX003 (ip), vehicle: Klucel (hydroxypropylcellulose) (HPC) 104 % of control | dose: 28.75 mg/kg/injection, schedule: Q01DX009 (ip), vehicle: Klucel (hydroxypropylcellulose) (HPC) 114 % of control | dose: 50.0 mg/kg/injection, schedule: Q01DX001 (ip), vehicle: Klucel (hydroxypropylcellulose) (HPC) 99 % of control | dose: 50.0 mg/kg/injection, schedule: Q04DX003 (ip), vehicle: Klucel (hydroxypropylcellulose) (HPC) 104 % of control | dose: 57.5 mg/kg/injection, schedule: Q01DX009 (ip), vehicle: Klucel (hydroxypropylcellulose) (HPC) 103 % of control | dose: 75.0 mg/kg/injection, schedule: Q04DX003 (ip), vehicle: other 106 % of control | dose: 100.0 mg/kg/injection, schedule: Q01DX001 (ip), vehicle: Klucel (hydroxypropylcellulose) (HPC) 102 % of control | dose: 115.0 mg/kg/injection, schedule: Q01DX009 (ip), vehicle: Klucel (hydroxypropylcellulose) (HPC) 120 % of control | dose: 115.0 mg/kg/injection, schedule: Q04DX003 (ip), vehicle: other 87 % of control | dose: 400.0 mg/kg/injection, schedule: Q01DX001 (ip), vehicle: Klucel (hydroxypropylcellulose) (HPC) 108 % of control

COc1ccc(CCCCC(=O)O)cc1O
inactive: [4] 103 % of control | [5] 103 % of control | [6] 107 % of control

CCOC(=O)C1CN(S(=O)(=O)c2ccc(C)cc2)c2ccccc2C(=O)C1/C(=C/C(=O)OC)C(=O)OC (stereo unspecified)
inactive: [7] 96 % of control | [8] 94 % of control | [9] 86 % of control

COc1ccc(-c2c(-c3ccccc3)c(=O)oc3ccc4ccccc4c23)cc1
inactive: [7] 97 % of control | [8] 100 % of control | [9] 97 % of control

O=NN(CCO)C(=O)Nc1ccc(NC(=O)N(CCO)N=O)cc1
inactive: dose: 9.0 mg/kg/injection, schedule: Q01DX001 (ip), vehicle: carboxymethylcellulose (CMC) 106 % of control | dose: 18.0 mg/kg/injection, schedule: Q01DX001 (ip), vehicle: carboxymethylcellulose (CMC) 108 % of control | dose: 26.0 mg/kg/injection, schedule: Q01DX001 (ip), vehicle: carboxymethylcellulose (CMC) 114 % of control | dose: 40.0 mg/kg/injection, schedule: Q01DX001 (ip), vehicle: carboxymethylcellulose (CMC) 111 % of control | dose: 60.0 mg/kg/injection, schedule: Q01DX001 (ip), vehicle: carboxymethylcellulose (CMC) 111 % of control

CCCCC(C)(O)C(F)(F)F (stereo unspecified)
inactive: dose: 100.0 mg/kg/injection, schedule: Q01DX001 (ip), vehicle: steriod suspending solution 96 % of control | dose: 200.0 mg/kg/injection, schedule: Q01DX001 (ip), vehicle: steriod suspending solution 91 % of control | dose: 400.0 mg/kg/injection, schedule: Q01DX001 (ip), vehicle: steriod suspending solution 100 % of control

CCCCOP(=O)(C=C(C(C)=O)C(C)=O)OCCCC
inactive: [7] 95 % of control | [8] 119 % of control | [9] 97 % of control

O=[N+]([O-])/C(N=Nc1ccc2ccccc2c1)=N\Nc1ccc2ccccc2c1
inactive: dose: 10.0 mg/kg/injection, schedule: Q01DX001 (ip), vehicle: acetone 98 % of control | dose: 20.0 mg/kg/injection, schedule: Q01DX001 (ip), vehicle: acetone 94 % of control | dose: 40.0 mg/kg/injection, schedule: Q01DX001 (ip), vehicle: acetone 88 % of control | dose: 75.0 mg/kg/injection, schedule: Q01DX001 (ip), vehicle: acetone 89 % of control | dose: 300.0 mg/kg/injection, schedule: Q01DX001 (ip), vehicle: acetone 89 % of control

NC(=O)N1CC(c2ccccc2)CCc2ccccc21 (stereo unspecified)
inactive: [4] 98 % of control | [5] 108 % of control | [6] 102 % of control

CC1=C(C)CC(/C(=N\Nc2ccc([N+](=O)[O-])cc2[N+](=O)[O-])c2ccccc2)CC1 (stereo unspecified)
inactive: dose: 100.0 mg/kg/injection, schedule: Q01DX001 (ip), vehicle: saline with Tween-80 89 % of control | dose: 200.0 mg/kg/injection, schedule: Q01DX001 (ip), vehicle: saline with Tween-80 89 % of control | dose: 400.0 mg/kg/injection, schedule: Q01DX001 (ip), vehicle: saline with Tween-80 96 % of control

O=S(=O)(O)CNc1ccccc1
inactive: dose: 100.0 mg/kg/injection, schedule: Q01DX009 (ip), vehicle: saline 93 % of control | dose: 200.0 mg/kg/injection, schedule: Q01DX009 (ip), vehicle: saline 93 % of control | dose: 400.0 mg/kg/injection, schedule: Q01DX009 (ip), vehicle: saline 95 % of control

CCCC/C=C/C#N
inactive: dose: 75.0 mg/kg/injection, schedule: Q01DX009 (ip), vehicle: saline 100 % of control | [4] 106 % of control | [1] 98 % of control | dose: 150.0 mg/kg/injection, schedule: Q01DX009 (ip), vehicle: saline 97 % of control | [5] 96 % of control | [2] 101 % of control | [6] 92 % of control | [3] 94 % of control

CC(=O)C1CCC2C3CC=C4CC(O)C=CC4(C)C3CCC12C (stereo unspecified)
inactive: [7] 92 % of control | [8] 96 % of control | [9] 92 % of control

COc1ccc2c(c1)CCC1C2=CC(=O)/C1=C\[O-].COc1ccc2c(c1)CCC1C2=CC(=O)/C1=C\[O-].[Cu+2] (stereo unspecified)
inactive: dose: 50.0 mg/kg/injection, schedule: Q01DX009 (ip), vehicle: saline with Tween-80 97 % of control | dose: 100.0 mg/kg/injection, schedule: Q01DX009 (ip), vehicle: saline with Tween-80 104 % of control | [1] 92 % of control | [2] 94 % of control

Cn1c(=O)c2[nH]c(C3CCCCCC3)nc2n(C)c1=O
inactive: dose: 50.0 mg/kg/injection, schedule: Q01DX001 (ip), vehicle: saline 87 % of control | [4] 96 % of control | [5] 87 % of control

COc1ccc(NC(=O)Nc2cccc(C)c2C)cc1
inactive: dose: 100.0 mg/kg/injection, schedule: Q01DX009 (ip), vehicle: gum acacia 96 % of control | dose: 100.0 mg/kg/injection, schedule: Q04DX003 (ip), vehicle: gum acacia 99 % of control | dose: 200.0 mg/kg/injection, schedule: Q01DX009 (ip), vehicle: gum acacia 97 % of control | dose: 200.0 mg/kg/injection, schedule: Q04DX003 (ip), vehicle: gum acacia 91 % of control | dose: 400.0 mg/kg/injection, schedule: Q01DX009 (ip), vehicle: gum acacia 94 % of control | dose: 400.0 mg/kg/injection, schedule: Q04DX003 (ip), vehicle: gum acacia 89 % of control

CC(CNN=C(N)N)NN=C(N)N (stereo unspecified)
inactive: dose: 30.0 mg/kg/injection, schedule: Q01DX Z (ip), vehicle: saline 116 % of control | dose: 60.0 mg/kg/injection, schedule: Q01DX Z (ip), vehicle: saline 100 % of control | dose: 120.0 mg/kg/injection, schedule: Q01DX Z (ip), vehicle: saline 96 % of control

CC(=O)c1cccc(NC(=O)Oc2ccc3c(C)cc(=O)oc3c2)c1
inactive: dose: 100.0 mg/kg/injection, schedule: Q01DX009 (ip), vehicle: Klucel (hydroxypropylcellulose) (HPC) 98 % of control | dose: 200.0 mg/kg/injection, schedule: Q01DX009 (ip), vehicle: Klucel (hydroxypropylcellulose) (HPC) 101 % of control | dose: 400.0 mg/kg/injection, schedule: Q01DX009 (ip), vehicle: Klucel (hydroxypropylcellulose) (HPC) 101 % of control
